Where a name gives a salt, the structure may show the parent alone. Read-outs that look alike come from different tables or passages of the source.

We go through 21 compounds from patent publication US20090208493A1, “Compounds and methods for the selective inhibition of ABCB1, ABCC1 and ABCG2 transporters and the treatment of cancers, especially drug resistant cancers and high throughput flow cytometry assay to detect selective inhibitors” (STC. UNM, priority 2007, published 2009).

Data set [1] has as its system DNR-resistant Jurkat cells. The experiment in a line: Chemreversal50: sensitisation of DNR-resistant Jurkat cells to 100 nM DNR. The class given is cell-based, human. The settings on record: read-out: Chemorev50 (SD), 50% of reversal of chemotherapeutic effect determined in in vitro screen. The procedure: To enable this analysis, a 3-log range of each “hit” compound was added in 2 mL aliquots to a 6 well plate and, over a range of 7 days, total cell number and viability was measured using a hemacytometer and trypan blue staining. Fresh media containing 100 nM DNR was added over the course of the experiment to maintain the cell concentration ≧100,000 cells/mL. […] The differences (if any) between the Chemreversal50 and TD50 gave an approximation of an in vitro “therapeutic index” for each compound.

The target in data set [2] is T1, ABCB1 (Homo sapiens, UniProt P08183). The experiment in a line: JC-1 efflux HyperCyt flow cytometry assay (ABCB1 reversal). To be noted: for hit in primary screen of Prestwick Chemical Library for ABCB1-mediated JC-1 efflux: final concentration of 5 μM.
Data set [3] deals with DNR-resistant Jurkat cells. The class given is cell-based. The settings on record: media alone, 7 days.
For a further data set, the target named is T2, ABCG2 (Homo sapiens, UniProt Q9UNQ0).
T2 construct: ABCG2-expressing IgMXP3 cells; endogenous in cells; host or cells: IgMXP3 cells (resistant subline of Igrov1)
T2 sequence (Q9UNQ0 1-655): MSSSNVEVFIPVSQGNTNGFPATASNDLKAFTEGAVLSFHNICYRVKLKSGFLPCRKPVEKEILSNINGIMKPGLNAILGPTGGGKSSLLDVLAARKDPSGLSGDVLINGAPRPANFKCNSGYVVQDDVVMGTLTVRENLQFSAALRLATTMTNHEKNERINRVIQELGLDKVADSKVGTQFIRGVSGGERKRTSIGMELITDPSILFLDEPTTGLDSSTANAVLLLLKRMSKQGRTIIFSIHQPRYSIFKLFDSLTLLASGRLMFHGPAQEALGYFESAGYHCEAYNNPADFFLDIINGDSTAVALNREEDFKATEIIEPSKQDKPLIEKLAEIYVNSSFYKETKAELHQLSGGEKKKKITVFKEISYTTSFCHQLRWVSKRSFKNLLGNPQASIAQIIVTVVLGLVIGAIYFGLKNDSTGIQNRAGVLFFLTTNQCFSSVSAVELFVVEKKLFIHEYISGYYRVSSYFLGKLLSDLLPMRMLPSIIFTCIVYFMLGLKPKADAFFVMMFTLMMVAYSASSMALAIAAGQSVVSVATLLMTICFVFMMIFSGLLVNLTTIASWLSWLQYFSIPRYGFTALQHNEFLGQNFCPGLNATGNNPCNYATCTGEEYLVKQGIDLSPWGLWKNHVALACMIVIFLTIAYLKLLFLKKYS
The experiment in a line: JC1 duplex high-throughput flow cytometry assay, ABCG2 (IgMXP3 cells). The class given is cell-based. The settings on record: 384 well plate. The procedure: (§1) Jurkat-DNR cells (ABCB1) were labeled with 0.5 ng/ml FarRed DDAO CellTrace SE (Invitrogen) for 15 min at room temperature, washed twice by centrifugation, then combined with unlabeled IgMXP3 cells (ABCG2) in the assay buffer. The label binds covalently to amine groups in cells and is detected at red fluorescence emission wavelengths of 665±10 nm upon excitation at 635 nm. Final in-well concentration of cells was 3×10^6 cell/ml at a 1:1 ratio of the two cell types.
A general note: A flow cytometer gives signals particle by particle.

The target in data set [4] is T1, ABCB1. The experiment in a line: JC1 duplex high-throughput flow cytometry assay, ABCB1 (Jurkat-DNR cells). Set-up: endogenous in cells; host or cells: Jurkat cells selected for daunorubicin resistance (Jurkat-DNR). To be noted: 384 well plate. Format: cell-based. The procedure:
as §1

The next data set relates to parental Jurkat cells. The experiment in a line: Chemosensitivity of parental (therapy sensitive) Jurkat cells. Format: cell-based. To be noted: Homo sapiens.
Data set [5] concerns Jurkat DNR resistant cells. The experiment in a line: Chemosensitivity of DNR-resistant Jurkat cells. The class given is cell-based, human. To be noted: for IC50: Homo sapiens, Jurkat cells with acquired resistance to DNR.
In data set [6] the target is T1, ABCB1. The settings on record: 5 μM.
Where [7] appears, read: Homo sapiens, 168 h, DNR-resistant Jurkat cells, fixed 100 nM DNR, 7 days, trypan blue viability.

T1 sequence (P08183 whole entry): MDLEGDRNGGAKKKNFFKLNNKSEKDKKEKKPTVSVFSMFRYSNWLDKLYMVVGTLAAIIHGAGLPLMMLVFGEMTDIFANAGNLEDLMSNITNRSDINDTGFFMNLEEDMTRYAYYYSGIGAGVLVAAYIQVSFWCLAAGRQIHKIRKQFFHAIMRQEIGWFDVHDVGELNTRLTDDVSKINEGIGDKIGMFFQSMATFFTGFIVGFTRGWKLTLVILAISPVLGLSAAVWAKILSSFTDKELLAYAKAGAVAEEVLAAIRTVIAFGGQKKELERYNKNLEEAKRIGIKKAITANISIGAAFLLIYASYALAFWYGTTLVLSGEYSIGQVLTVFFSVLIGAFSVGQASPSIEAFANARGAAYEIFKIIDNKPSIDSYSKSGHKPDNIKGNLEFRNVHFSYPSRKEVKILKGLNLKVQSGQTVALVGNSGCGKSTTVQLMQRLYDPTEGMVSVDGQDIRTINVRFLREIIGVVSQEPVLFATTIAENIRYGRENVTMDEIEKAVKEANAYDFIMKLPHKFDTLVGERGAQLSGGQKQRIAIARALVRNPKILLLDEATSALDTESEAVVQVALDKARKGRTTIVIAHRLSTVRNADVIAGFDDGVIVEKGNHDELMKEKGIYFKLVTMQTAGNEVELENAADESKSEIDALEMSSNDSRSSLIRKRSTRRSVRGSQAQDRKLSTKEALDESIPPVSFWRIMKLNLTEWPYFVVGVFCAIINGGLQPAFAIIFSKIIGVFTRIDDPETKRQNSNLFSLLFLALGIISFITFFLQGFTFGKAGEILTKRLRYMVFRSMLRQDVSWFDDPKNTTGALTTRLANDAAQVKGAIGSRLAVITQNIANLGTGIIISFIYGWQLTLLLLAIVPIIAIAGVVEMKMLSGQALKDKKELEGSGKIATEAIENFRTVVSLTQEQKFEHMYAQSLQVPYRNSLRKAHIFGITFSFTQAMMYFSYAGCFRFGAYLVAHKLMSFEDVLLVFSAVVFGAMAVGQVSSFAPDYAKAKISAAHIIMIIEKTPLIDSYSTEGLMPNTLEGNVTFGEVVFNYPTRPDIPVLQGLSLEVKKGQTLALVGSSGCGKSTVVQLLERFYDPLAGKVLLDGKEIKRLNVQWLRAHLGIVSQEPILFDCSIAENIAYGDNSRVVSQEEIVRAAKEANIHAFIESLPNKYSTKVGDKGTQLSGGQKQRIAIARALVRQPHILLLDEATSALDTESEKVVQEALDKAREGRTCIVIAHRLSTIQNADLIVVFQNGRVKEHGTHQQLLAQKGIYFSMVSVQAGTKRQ

Regarding `CC(C)COCC(CN(Cc1ccccc1)c1ccccc1)N1CCCC1` (stereo not shown) [Bepridil HCL, bepridil], the EC50 in data set [1] (setting [7]) stood at 3.3 µM. The IC50 on ABCB1 [2] came out at 7.4 ± 0.95 µM. In the case of `Cc1c2ccncc2c(C)c2c1[nH]c1ccccc12` [Ellipticine, ellipticine], in data set [1] (Homo sapiens, Jurkat, 168 h), the EC50 was found to be 1.8 µM. In addition, the “TD50 (SD), 50% toxic dose determined in in vitro screen” value in data set [3] amounted to 3.8 µM; in data set [3] (listed as ellipticine), 2.7 ± 1.56 µM. Besides, the IC50 at ABCB1 [2] was found to be 0.99 ± 0.014 µM. Consider `Fc1ccc(C(OCCN2CCN(CCCc3ccccc3)CC2)c2ccc(F)cc2)cc1` [GBR 12909 HCL, GBR 12909], for which, in data set [1] (setting [7]), the EC50 was determined as 2.1 µM. Also, at ABCB1 [2], the IC50 worked out at 4.6 ± 0.28 µM. `CC[C@H](c1ccc(O)cc1)[C@@H](CC)c1ccc(O)cc1` [Hexestrol, hexestrol]: in data set [1] (Homo sapiens, Jurkat, 168 h), the EC50 amounted to 12.8 µM. Also, the IC50 on ABCB1 [2] worked out at 8.3 ± 3.2 µM.

In the case of `CC(=O)N1CCN(c2ccc(OCC3COC(Cn4ccnc4)(c4ccc(Cl)cc4Cl)O3)cc2)CC1` (stereo not shown) [Ketoconazole, ketoconazole], the EC50 in data set [1] (setting [7]) was found to be 3.7 µM. For the compound `CC[C@@H](C(=O)[C@@H](C)[C@@H](O)[C@H](C)CCc1ccc(C)c(O)c1C(=O)O)[C@H]1O[C@](CC)([C@H]2CC[C@](O)(CC)[C@H](C)O2)C[C@@H]1C` [Lasalocid], the “JC1 duplex assay response, ABCG2” value on ABCG2 was “significant assay response for both transporters”. For the same compound, the “JC1 duplex assay response, ABCB1” value at ABCB1 [4] was “significant assay response for both transporters”. For `Cc1cccc(C)c1NC(=O)CN1CCN(CCCC(c2ccc(F)cc2)c2ccc(F)cc2)CC1` [Lidoflazine, lidoflazine], the EC50 in data set [1] (setting [7]) is 3.1 µM. For the same compound, on ABCB1 [2], the half-inhibitory concentration (IC50) was 5.4 ± 0.55 µM. Regarding `C[C@@H]1C[C@H]2[C@@H]3CCC4=CC(=O)C=C[C@]4(C)[C@@]3(Cl)[C@@H](O)C[C@]2(C)[C@@]1(OC(=O)c1ccco1)C(=O)CCl` [Mometasone Furoate, mometasone furoate], the EC50 in data set [1] (DNR-resistant Jurkat cells, fixed 100 nM DNR, 7 days, trypan blue viability) stood at 1.4 ± 0.28 µM. The “TD50 (SD), 50% toxic dose determined in in vitro screen” value in data set [3] came to 30.4 µM; in data set [3] (listed as mometasone), 24.8 ± 8.0 µM. At ABCB1 [2] (read-out: IC50 (SD), 50% inhibition of drug efflux determined in high-throughput screen, JC-1 efflux, DNR-resistant Jurkat cells), the IC50 was 0.74 ± 0.13 µM. Consider `COC(=O)C1=C(C)NC(C)=C(C(=O)OCCN(C)Cc2ccccc2)C1c1cccc([N+](=O)[O-])c1` (stereo not shown) [Nicardipine HCL, nicardipine], for which the EC50 in data set [1] (setting [7]) is 2.6 µM. For `C[C@]12C=CC(=O)C=C1CC[C@@H]1[C@@H]2[C@@H](O)C[C@@]2(C)[C@H]1CC[C@]2(O)C(=O)CO` [PRED, prednisolone], in the data set with parental Jurkat cells, the IC50 was 0.316 µM. Moreover, in data set [5], the “increased resistance of DNR-resistant vs parental Jurkat cells” value (shortened to “increased resistance of DNR-resistant”) worked out at 3 fold and the IC50 was 1 µM.

For `CCCNCC(O)COc1ccccc1C(=O)CCc1ccccc1` (stereo not shown) [Propafenone HCL, propafenone], the EC50 in data set [1] (setting [7]) turned out to be 4.9 ± 1.3 µM. Turning to `COC(=O)[C@H]1[C@H]2C[C@@H]3c4[nH]c5cc(OC)ccc5c4CCN3C[C@H]2C[C@@H](OC(=O)/C=C/c2cc(OC)c(OC)c(OC)c2)[C@@H]1OC` [Rescinnamine, rescinnamine], in data set [1] (setting [7]), the EC50 came to 1 µM. Besides, the IC50 at ABCB1 [2] came to 1.53 ± 0.5 µM.

`CC[C@]1(O)C[C@H]2CN(CCc3c([nH]c4ccccc34)[C@@](C(=O)OC)(c3cc4c(cc3OC)N(C=O)[C@H]3[C@@](O)(C(=O)OC)[C@H](OC(C)=O)[C@]5(CC)C=CCN6CC[C@]43[C@@H]65)C2)C1` [VCR, Vincristine]: the IC50 in the data set with parental Jurkat cells is 6.31 µM. In data set [5], the “increased resistance of DNR-resistant” value was “approximately 70 fold” and inhibition was half-maximal at 316 µM (IC50).

Regarding `CC[C@H](C)[C@H]1O[C@]2(C=C[C@@H]1C)C[C@@H]1C[C@@H](C/C=C(\C)[C@@H](O[C@H]3C[C@H](OC)[C@@H](O[C@H]4C[C@H](OC)[C@@H](O)[C@H](C)O4)[C@H](C)O3)[C@@H](C)/C=C/C=C3\CO[C@@H]4[C@H](O)C(C)=C[C@@H](C(=O)O1)[C@]34O)O2` [avermectin], the “hit in primary screen of Prestwick Chemical Library for ABCB1-mediated JC-1 efflux” value (“hit in primary screen” for short) at ABCB1 [2] is on record as “inhibiting ABCB1-mediated drug efflux”. Same read-out and setting: the value for `Cc1cc(C2CCCCC2)n(O)c(=O)c1.NCCO` [ciclopirox ethanolamine] was “inhibiting ABCB1-mediated drug efflux”. Take `CC(=O)O[C@H]1C[C@@]2(C)[C@@H](C[C@@H](O)[C@H]3[C@@]4(C)CC[C@@H](O)[C@@H](C)[C@@H]4CC[C@@]32C)/C1=C(\CCC=C(C)C)C(=O)O` [fusidic acid]: the “hit in primary screen” value on ABCB1 [6] is on record as “inhibiting ABCB1-mediated drug efflux”. With `C=C(C)[C@H]1Cc2c(ccc3c2O[C@@H]2COc4cc(OC)c(OC)cc4[C@@H]2C3=O)O1` [rotenone], the “hit in primary screen” value on ABCB1 [2] is reported as “inhibiting ABCB1-mediated drug efflux”.

As to `CCOC(=O)Oc1c(OC)cc(C(=O)O[C@@H]2C[C@@H]3CN4CCc5c([nH]c6cc(OC)ccc56)[C@H]4C[C@@H]3[C@H](C(=O)OC)[C@H]2OC)cc1OC` [syrosingopine], the “hit in primary screen” value at ABCB1 [6] is given as “inhibiting ABCB1-mediated drug efflux”.

As for `COc1c(O[C@@H]2O[C@H](CO)[C@@H](O)[C@H](O)[C@H]2O)cc2c(c1OC)-c1ccc(SC)c(=O)cc1[C@@H](NC(C)=O)CC2` [thiocolchicoside], at ABCB1 [2], the “hit in primary screen” value is on record as “inhibiting ABCB1-mediated drug efflux”.

Take L-asparaginase: the “increased resistance of DNR-resistant” value in data set [5] is given as “no increased resistance”. antimycin: on ABCB1 [2], the “hit in primary screen” value is on record as “inhibiting ABCB1-mediated drug efflux”.

One may read the IC50 as the concentration that inhibits the measured activity by half.
